# Reference: US12257214B2, “Compositions and methods comprising deoxy-pentitols” (The Charlotte Mecklenburg Hospital Authority, priority 2021, dated 2025)
# Columns and labels:
# SU-DHL-1 = assay: ATPlite cell IC50 screening, SU-DHL-1; type: cell-based; conditions: Homo sapiens; SU-DHL-1, Anaplastic large cell lymphoma; ATPlite luminescence
# Experimental: (§1) In brief, the cells were cultures in relevant medium and treated with a range of 9 doses of 2-deoxyribitol, from 10 mM, 5 mM, 2.5 mM, 1.25 mM, 0.62 mM, 0.31 mM, 0.08 mM, and 0.04 mM. Cells were diluted in the corresponding ATCC recommended medium and dispensed in a 384-well plate, depending on the cell line used, at a density of 100-6400 cells per well in 45 μl medium. For each used cell line the optimal cell density was used. The margins of the plate were filled with phosphate-buffered saline. Plated cells were incubated in a humidified atmosphere of 5% CO2 at 37° C. After 24 hours, 5 μl of compound dilution was added and plates were further incubated. At the end of experiment (t=end), 24 μl of ATPlite 1Step™ (PerkinElmer) solution was added to each well, and subsequently shaken for 2 minutes. After 10 minutes of incubation in the dark, the luminescence was recorded on an Envision multimode reader (PerkinElmer). IC50 was determined in comparison with the control samples. The cell lines tested and their corresponding disease model is indicated the left-most and middle columns, respectively. IC50 values are given in μM values in the right-most column. This screening was performed of a list of cancer cells to establish IC50 values for each of the cancer cell lines. This screening provides evidence for the potential of 2DR to treat many cancer types.
# RS4-11 = assay: ATPlite cell IC50 screening, RS4-11; type: cell-based; conditions: Homo sapiens; RS4-11, Adult B acute lymphoblastic leukemia; ATPlite luminescence
# Experimental: as §1
# RKO = assay: ATPlite cell IC50 screening, RKO; type: cell-based; conditions: Homo sapiens, Colon carcinoma, ATPlite luminescence
# Experimental: as §1
# SW982 = assay: ATPlite cell IC50 screening, SW982; type: cell-based; conditions: Homo sapiens; SW982, Biphasic synovial sarcoma; ATPlite luminescence
# Experimental: as §1
# SW837 = assay: ATPlite cell IC50 screening, SW837; type: cell-based; conditions: Homo sapiens; SW837, Rectal adenocarcinoma; ATPlite luminescence
# Experimental: as §1
# VA-ES-BJ = assay: ATPlite cell IC50 screening, VA-ES-BJ; type: cell-based; conditions: Epithelioid sarcoma, ATPlite luminescence
# Experimental: as §1
# NCI-H82 = assay: ATPlite cell IC50 screening, NCI-H82; type: cell-based; conditions: Homo sapiens; NCI-H82, Small cell lung carcinoma; ATPlite luminescence
# Experimental: as §1
# SW900 = assay: ATPlite cell IC50 screening, SW900; type: cell-based; conditions: Homo sapiens; SW900, Squamous cell lung carcinoma; ATPlite luminescence
# Experimental: as §1
# [1] = tested on: alpha dystroglycan (α-DG); assay: Glycosylation of alpha dystroglycan; type: cell-based
# From the text: This invention applies a synthetic molecule, 2-deoxyribitol, to treat cancer for growth inhibition and cancer cell killing. Naturally-occurring ribitol is a metabolite, but its metabolic pathway has not been clearly defined. Recently, ribitol has been identified as a precursor of CDP-ribitol, the substrate used for the synthesis of sugar modification of a membrane protein, alpha dystroglycan (α-DG). […] The loss or reduced expression of glycosylation of α-DG has been linked to cancer progression and metastasis in breast and other cancers in clinics, and enhanced glycosylation of α-DG may inhibit cancer cell growth and tumorigenicity. This study screened several different pentose and pentitol molecules including ribose, 2-deoxyribose, ribulose, 2-deoxyribitol, xylose, and xylitol to evaluate these sugar molecules for the effects of enhancing glycosylation of α-DG and inhibiting cancer cell growth/tumorigenicity.
# T24 = assay: ATPlite cell IC50 screening, T24; type: cell-based; conditions: Homo sapiens, T-24; T24, Bladder carcinoma; ATPlite luminescence
# Experimental: as §1
# CCRF-CEM = assay: ATPlite cell IC50 screening, CCRF-CEM; type: cell-based; conditions: Homo sapiens, Childhood T acute lymphoblastic leukemia, ATPlite luminescence
# Experimental: as §1
# Water solubility = type: physicochemical
# From the text: It can be delivered by direct application to local areas, given orally or through vasculature system. 2-deoxyribitol can also be delivered before, at the same time, or after the use of other drugs. 2-deoxyribitol can be applied as treatment for cancers before, at the same time, or after any other treatment procedure(s). In addition, the effect of 2-deoxyribitol on three tissue types of cancers indicate that it can be applied for many other epithelial cancers.
# SW620 = assay: ATPlite cell IC50 screening, SW620; type: cell-based; conditions: Homo sapiens, SW-620; SW620, Colon adenocarcinoma; ATPlite luminescence
# Experimental: as §1
# [2] = tested on: prostate cancer cell line LNCaP; assay: LNCaP cell culture, growth and death (FIG. 5, FIG. 10); type: cell-based
# Experimental: A dose dependent decrease in cell density was clearly detected with 2-deoxyribitol treatment, but not with ribitol treatment.
# Less than 50% of cells and 10% of cells were detected with the treatment of 10 mM and 50 mM 2-deoxyribitol, respectively.
# KU812 = assay: ATPlite cell IC50 screening, KU812; type: cell-based; conditions: Homo sapiens; KU812, Chronic myelogenous leukemia; ATPlite luminescence
# Experimental: as §1
# HCT 116 = assay: ATPlite cell IC50 screening, HCT 116; type: cell-based; conditions: Homo sapiens; HCT 116, Colon carcinoma; ATPlite luminescence
# Experimental: as §1
# SW948 = assay: ATPlite cell IC50 screening, SW948; type: cell-based; conditions: Homo sapiens; SW948, Colon adenocarcinoma; ATPlite luminescence
# Experimental: as §1
# A-427 = assay: ATPlite cell IC50 screening, A-427; type: cell-based; conditions: Homo sapiens; A-427, Lung adenocarcinoma; ATPlite luminescence
# Experimental: as §1
# DU 145 = assay: ATPlite cell IC50 screening, DU 145; type: cell-based; conditions: Homo sapiens; DU 145, Prostate carcinoma; ATPlite luminescence
# Experimental: as §1
# ACHN = assay: ATPlite cell IC50 screening, ACHN; type: cell-based; conditions: Homo sapiens, Papillary renal cell carcinoma, ATPlite luminescence
# Experimental: as §1
# SU-DHL-6 = assay: ATPlite cell IC50 screening, SU-DHL-6; type: cell-based; conditions: Homo sapiens; SU-DHL-6, Diffuse large B-cell lymphoma; ATPlite luminescence
# Experimental: as §1
# J82 = assay: ATPlite cell IC50 screening, J82; type: cell-based; conditions: Homo sapiens; J82, Bladder carcinoma; ATPlite luminescence
# Experimental: as §1
# 5637 = assay: ATPlite cell IC50 screening, 5637; type: cell-based; conditions: 5637, Bladder carcinoma; ATPlite luminescence
# Experimental: as §1
# 786-O = assay: ATPlite cell IC50 screening, 786-O; type: cell-based; conditions: Homo sapiens, 786-0, Renal cell carcinoma, ATPlite luminescence
# Experimental: as §1
# DB = assay: ATPlite cell IC50 screening, DB; type: cell-based; conditions: Homo sapiens, Diffuse large B-cell lymphoma, ATPlite luminescence
# Experimental: as §1
smiles,measurement,setting,value
OCC[C@H](O)[C@H](O)CO [2-deoxyribitol],IC50,SU-DHL-1,2.65 mM
same,IC50,RS4-11,3.06 mM
same,IC50,RKO,5.77 mM
same,IC50,SW982,2.78 mM
same,IC50,SW837,9.79 mM
same,IC50,VA-ES-BJ,5.28 mM
same,IC50,NCI-H82,2.94 mM
same,IC50,SW900,3.19 mM
same,glycosylation of α-DG,[1],did not enhance glycosylation of α-DG
same,IC50,T24,> 10 mM
same,IC50,CCRF-CEM,5.97 mM
same,water solubility,Water solubility,water soluble
same,IC50,SW620,5.22 mM
same,cells detected after treatment,"[2]; 10 mM, 4 days",Less than 50%
same,number of cancer cells / anticancer effect,"[2]; 10 mM, 7 days (FIG. 10)",markedly reduces the number of cancer cells
same,cells detected after treatment,"[2]; 50 mM, 4 days",< 10%
same,"effect on cell growth, death and cell density","[2]; 2-50 mM, 4 days",dose dependent inhibition in cell growth and death
same,IC50,KU812,4.3 mM
same,IC50,HCT 116,5.73 mM
same,IC50,SW948,2.53 mM
same,IC50,A-427,3.95 mM
same,IC50,DU 145,4.87 mM
same,IC50,ACHN,3.14 mM
same,IC50,SU-DHL-6,4.06 mM
same,IC50,J82,3.63 mM
same,IC50,5637,9.33 mM
same,IC50,786-O,8.57 mM
same,IC50,DB,4.08 mM
